According to ChEMBL document CHEMBL3045138, “Peroxidizing Phytotoxic Activity of Pyrazoles” (J Pestic Sci, 1995):

Key:
Scenedesmus acutus [1] = assay: Growth inhibition of Scenedesmus acutus assessed as packed cell volume per ml of algal culture volume after 16 hr (reference value: 3.8 ul pcv/ml); type: functional
Scenedesmus acutus [2] = assay: Phytotoxicity against Scenedesmus acutus assessed as inhibition of chlorophyll content after 16 hr by spectrophotometry relative to untreated control; type: functional

**Q.** C#CCOc1cc(N2C(=O)C3=C(CCCC3)C2=O)c(F)cc1Cl was tested. Which Activity (Scenedesmus acutus [1]) did it give?
**A.** Its Activity is 2.4 uL/ml.

**Q.** What about the “inhibition (INH)” value (Scenedesmus acutus [2]) of the same molecule?
**A.** Its value is 73.6%.

**Q.** For Fc1cc(Cl)c(OC(F)F)cc1-n1nc2c(c1Cl)CCCC2, which Activity (Scenedesmus acutus [1]) is on record?
**A.** The Activity was 1.5 uL/ml.

**Q.** What about the “inhibition (INH)” value (Scenedesmus acutus [2]) of the same molecule?
**A.** Its value is 89.7%.

**Q.** N#Cc1cnn(-c2c(Cl)cc(C(F)(F)F)cc2Cl)c1N was tested. Which Activity (Scenedesmus acutus [1]) did it give?
**A.** Its Activity is 2 uL/ml.

**Q.** And the “inhibition (INH)” value (Scenedesmus acutus [2])?
**A.** The value was 61%.

**Q.** What does the source list for COc1cc(-n2nc(C)c(C)c2C)c(F)cc1Cl?
**A.** Activity (Scenedesmus acutus [1]): 4.1 uL/ml; inhibition (INH) (Scenedesmus acutus [2]): 0%

**Q.** C/C=C/COc1cc(-n2nc(C)c(C)c2C)c(F)cc1Cl was tested. Which Activity (Scenedesmus acutus [1]) did it give?
**A.** Its Activity is 3.5 uL/ml.

**Q.** And the “inhibition (INH)” value (Scenedesmus acutus [2])?
**A.** Its value is 17.2%.

**Q.** C#CCOc1cc(-n2nc(C)c(Cl)c2C)c(Cl)cc1Cl was tested. Which Activity (Scenedesmus acutus [1]) did it give?
**A.** The Activity was 4 uL/ml.

**Q.** And the “inhibition (INH)” value (Scenedesmus acutus [2])?
**A.** The value was 0%.

**Q.** What does the source list for C#CCOc1cc(-n2nc(CC)c(Cl)c2CC)c(F)cc1Cl?
**A.** Activity (Scenedesmus acutus [1]): 2.7 uL/ml; inhibition (INH) (Scenedesmus acutus [2]): 30.3%

**Q.** With Cc1nn(-c2cc(OC(C)C)c(Cl)cc2F)c(C)c1C as the molecule, how does the Activity (Scenedesmus acutus [1]) read?
**A.** The Activity was 3.9 uL/ml.

**Q.** And the “inhibition (INH)” value (Scenedesmus acutus [2])?
**A.** The value was 11.1%.

**Q.** What does the source list for Cc1cc(C)n(-c2ccc(Cl)cc2F)n1?
**A.** Activity (Scenedesmus acutus [1]): 4.1 uL/ml; inhibition (INH) (Scenedesmus acutus [2]): 0%

**Q.** What does the source list for C#CCOc1cc(-n2nc(C)c(Cl)c2C)c(Cl)cc1F?
**A.** Activity (Scenedesmus acutus [1]): 3.1 uL/ml; inhibition (INH) (Scenedesmus acutus [2]): 26.7%

**Q.** C#CCOc1cc(-n2nc(C)c(Cl)c2C)c(F)cc1Cl was tested. Which Activity (Scenedesmus acutus [1]) did it give?
**A.** The Activity was 2.7 uL/ml.

**Q.** What about the “inhibition (INH)” value (Scenedesmus acutus [2]) of the same molecule?
**A.** The value was 38.5%.

**Q.** How did the Activity (Scenedesmus acutus [1]) turn out when Cc1nn(-c2cc(OC(C)C)c(Cl)cc2F)c(C)c1[N+](=O)[O-] was run?
**A.** Its Activity is 3.5 uL/ml.

**Q.** And the “inhibition (INH)” value (Scenedesmus acutus [2])?
**A.** Its value is 17.7%.

**Q.** C#CCOc1cc(-n2nc(C)c([N+](=O)[O-])c2C)c(F)cc1Cl was tested. Which Activity (Scenedesmus acutus [1]) did it give?
**A.** The Activity was 2.5 uL/ml.

**Q.** And the “inhibition (INH)” value (Scenedesmus acutus [2])?
**A.** The value was 46%.

**Q.** For O=C1C2=C(CCCC2)C(=O)N1c1ccc(Cl)cc1 [CHLOROPHTHALIUM], which Activity (Scenedesmus acutus [1]) is on record?
**A.** The Activity was 2.5 uL/ml.

**Q.** And the “inhibition (INH)” value (Scenedesmus acutus [2])?
**A.** The value was 72.3%.

**Q.** How did the Activity (Scenedesmus acutus [1]) turn out when CCOc1cc(Oc2ccc(C(F)(F)F)cc2Cl)ccc1[N+](=O)[O-] [OXYFLUORFEN] was run?
**A.** Its Activity is 1.4 uL/ml.

**Q.** And the “inhibition (INH)” value (Scenedesmus acutus [2])?
**A.** The value was 92.2%.
